Laboratory results: ChEMBL document CHEMBL1201862, “PubChem BioAssay data set” (2004)
The source made the active and inactive calls.

What was measured:
[1] = loss of viability in HepG2 cells – cell-based, CellTiter-Glo, cherry-picked, cytotoxicity control for Shn3 inhibitor project, dose response (AID 624134); assay type: functional
[2] = molecular target: T1, Ubiquitin-conjugating enzyme E2 N (Homo sapiens, UniProt P61088); assay type: functional;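 note: Dose-response confirmation in a TR-FRET assay detecting UBC13-driven polyubiquitin chain formation, inhibition measured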
T1 sequence (P61088 whole entry): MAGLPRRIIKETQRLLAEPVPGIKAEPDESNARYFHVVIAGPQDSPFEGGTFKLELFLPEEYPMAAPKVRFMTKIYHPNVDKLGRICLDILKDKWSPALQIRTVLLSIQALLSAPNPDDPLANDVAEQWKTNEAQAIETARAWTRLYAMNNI

[3] = non-specific 3'UTR reporter inhibition in Clone20-Shn3RL – cell-based, Renilla luciferase, cherry-picked, counter-screen for Shn3 inhibitor project, dose response (AID 624133); assay type: functional
[4] = reduction of Shn3 3'UTR-driven luciferase in osteoblasts – cell-based, Clone20 osteoblasts, firefly luciferase, cherry-picked, dose response (AID 624132); assay type: functional;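 note: firefly luciferase luminescence from reporter carrying the Shn3 3'UTR in osteoblasts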
[5] = viability of PTEN-deleted HCT116 cells – cell-based, HCT116 PTEN knockout, dose response (AID 1047); assay type: functional;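 note: HCT116 colon tumor cells with PTEN knocked out; cells exposed to compound for 60 hours before readout; potency for loss of cell viability measured by luminescence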
[6] = viability of HCT116 lacking mutant beta-catenin – cell-based, human colon tumor, dose response (AID 1045); assay type: functional;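 note: HCT116 colon tumor cells with beta catenin knocked out; cells exposed to compound for 60 hours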
Cytochrome P450 1A2 = molecular target: T2, Cytochrome P450 1A2 (Homo sapiens, UniProt P05177);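 note: PubChem cytochrome P450 panel assay, CYP1A2 panel member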
T2 sequence (P05177 whole entry): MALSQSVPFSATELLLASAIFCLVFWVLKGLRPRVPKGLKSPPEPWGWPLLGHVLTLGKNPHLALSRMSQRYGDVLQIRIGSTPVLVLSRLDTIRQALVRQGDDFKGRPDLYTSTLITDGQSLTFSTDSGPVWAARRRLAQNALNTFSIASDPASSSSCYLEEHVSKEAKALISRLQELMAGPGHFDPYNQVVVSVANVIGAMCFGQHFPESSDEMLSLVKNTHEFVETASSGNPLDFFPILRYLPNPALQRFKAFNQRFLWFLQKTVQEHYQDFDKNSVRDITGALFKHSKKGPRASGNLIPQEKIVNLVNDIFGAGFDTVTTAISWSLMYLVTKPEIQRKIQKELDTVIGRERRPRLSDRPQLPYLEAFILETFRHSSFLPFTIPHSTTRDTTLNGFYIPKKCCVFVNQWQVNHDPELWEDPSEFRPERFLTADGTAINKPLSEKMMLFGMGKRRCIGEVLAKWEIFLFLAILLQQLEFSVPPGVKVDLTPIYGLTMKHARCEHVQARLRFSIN

Cytochrome P450 2C9 = Cytochrome P450 2C9 (Homo sapiens, UniProt P11712)
Cytochrome P450 3A4 = Cytochrome P450 3A4 (Homo sapiens, UniProt P08684);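 note: CYP3A4 tested as one member of a cytochrome P450 panel screen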
Cytochrome P450 2C19 = Cytochrome P450 2C19 (Homo sapiens, UniProt P33261); test: Cytochrome panel assay with activity outcomes. Panel member name: p450-cyp2c19 Compounds with AC50 equal or less than 10 uM are considered active; assay type: functional; details: read-out: AC50
Large T antigen = Large T antigen (Simian virus 40, UniProt P03070); assay type: functional, Betapolyomavirus macacae;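 note: Confirmatory-stage PubChem screen for compounds that inhibit SV40 T antigen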
Protein skinhead-1 = molecular target: T3, Protein skinhead-1 (Caenorhabditis elegans, UniProt P34707); assay type: functional
T3 sequence (P34707 whole entry): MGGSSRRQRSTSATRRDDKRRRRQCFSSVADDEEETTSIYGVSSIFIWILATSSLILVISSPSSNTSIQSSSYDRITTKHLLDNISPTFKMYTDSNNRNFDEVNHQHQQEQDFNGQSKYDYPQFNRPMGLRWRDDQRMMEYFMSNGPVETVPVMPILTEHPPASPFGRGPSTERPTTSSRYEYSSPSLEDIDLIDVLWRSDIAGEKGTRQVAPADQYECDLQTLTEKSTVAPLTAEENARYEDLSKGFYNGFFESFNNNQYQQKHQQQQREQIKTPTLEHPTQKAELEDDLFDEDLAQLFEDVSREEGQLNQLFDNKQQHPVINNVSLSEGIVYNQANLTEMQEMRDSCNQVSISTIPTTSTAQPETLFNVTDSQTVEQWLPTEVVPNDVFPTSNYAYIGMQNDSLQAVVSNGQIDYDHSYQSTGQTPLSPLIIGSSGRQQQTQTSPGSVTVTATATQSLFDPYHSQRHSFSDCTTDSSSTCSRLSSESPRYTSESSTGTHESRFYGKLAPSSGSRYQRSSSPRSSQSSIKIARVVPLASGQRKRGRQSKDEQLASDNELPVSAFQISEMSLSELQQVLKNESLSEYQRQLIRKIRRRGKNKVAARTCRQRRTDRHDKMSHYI

[7] = P. falciparum Dd2 growth inhibitors, dose response, SYBR Green, cherry-picked samples (AID 1159567); assay type: functional, cell-based
[8] = intracellular Trypanosoma cruzi inhibitors in host cells – cell-based, plate reader, cherry-pick samples, set 3, dose response (AID 651818); assay type: functional;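 note: compounds incubated with infected cells for about four days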
Paired box protein Pax-8 = Paired box protein Pax-8 (Homo sapiens, UniProt Q06710); test: PAX8 transcriptional activity inhibition in RMG-I – RMG-I cells, luciferase, cherry-pick, dose response (AID 687027); assay type: functional, cell-based;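 note: luciferase reporter driven by Pax8 target thyroperoxidase promoter measured by SteadyGlo luminescence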
Sequence of Paired box protein Pax-8 (Q06710 whole entry): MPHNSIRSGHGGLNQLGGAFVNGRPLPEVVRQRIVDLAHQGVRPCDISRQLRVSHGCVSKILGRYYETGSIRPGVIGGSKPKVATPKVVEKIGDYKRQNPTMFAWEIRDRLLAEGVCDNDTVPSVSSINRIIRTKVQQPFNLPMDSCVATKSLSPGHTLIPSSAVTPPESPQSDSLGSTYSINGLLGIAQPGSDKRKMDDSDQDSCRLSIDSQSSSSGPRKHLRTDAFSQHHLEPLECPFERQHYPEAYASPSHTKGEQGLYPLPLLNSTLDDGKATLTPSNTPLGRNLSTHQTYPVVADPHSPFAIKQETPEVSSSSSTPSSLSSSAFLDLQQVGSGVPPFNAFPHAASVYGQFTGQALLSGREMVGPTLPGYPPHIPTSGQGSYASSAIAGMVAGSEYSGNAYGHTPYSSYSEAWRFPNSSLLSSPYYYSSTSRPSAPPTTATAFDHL

Sequence of Cytochrome P450 2C9 (P11712 whole entry): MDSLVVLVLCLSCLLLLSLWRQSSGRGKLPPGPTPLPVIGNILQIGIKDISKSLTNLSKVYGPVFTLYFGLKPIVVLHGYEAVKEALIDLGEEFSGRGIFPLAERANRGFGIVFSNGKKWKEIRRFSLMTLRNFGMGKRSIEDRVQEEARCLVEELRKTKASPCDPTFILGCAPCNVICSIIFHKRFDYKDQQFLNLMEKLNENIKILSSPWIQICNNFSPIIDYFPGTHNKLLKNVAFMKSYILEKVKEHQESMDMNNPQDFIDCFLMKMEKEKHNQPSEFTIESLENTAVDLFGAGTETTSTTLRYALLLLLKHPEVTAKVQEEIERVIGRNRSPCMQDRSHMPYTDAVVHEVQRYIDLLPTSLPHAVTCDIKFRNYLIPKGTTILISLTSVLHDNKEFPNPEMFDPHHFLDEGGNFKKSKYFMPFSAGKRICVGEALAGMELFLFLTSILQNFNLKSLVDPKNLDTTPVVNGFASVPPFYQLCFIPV
Sequence of Cytochrome P450 2C19 (P33261 whole entry): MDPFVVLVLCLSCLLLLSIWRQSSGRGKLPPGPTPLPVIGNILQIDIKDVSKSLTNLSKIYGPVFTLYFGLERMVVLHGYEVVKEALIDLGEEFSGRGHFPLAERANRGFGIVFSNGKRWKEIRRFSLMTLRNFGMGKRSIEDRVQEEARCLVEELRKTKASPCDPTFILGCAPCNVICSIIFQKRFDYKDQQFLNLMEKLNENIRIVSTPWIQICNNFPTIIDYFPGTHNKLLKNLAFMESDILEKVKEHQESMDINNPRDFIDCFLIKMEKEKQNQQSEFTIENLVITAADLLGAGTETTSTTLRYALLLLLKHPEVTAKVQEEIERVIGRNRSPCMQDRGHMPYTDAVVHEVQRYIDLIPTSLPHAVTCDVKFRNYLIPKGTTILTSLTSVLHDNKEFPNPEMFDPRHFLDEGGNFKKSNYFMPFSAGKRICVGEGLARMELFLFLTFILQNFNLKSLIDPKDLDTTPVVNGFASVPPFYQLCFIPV
Sequence of Cytochrome P450 3A4 (P08684 whole entry): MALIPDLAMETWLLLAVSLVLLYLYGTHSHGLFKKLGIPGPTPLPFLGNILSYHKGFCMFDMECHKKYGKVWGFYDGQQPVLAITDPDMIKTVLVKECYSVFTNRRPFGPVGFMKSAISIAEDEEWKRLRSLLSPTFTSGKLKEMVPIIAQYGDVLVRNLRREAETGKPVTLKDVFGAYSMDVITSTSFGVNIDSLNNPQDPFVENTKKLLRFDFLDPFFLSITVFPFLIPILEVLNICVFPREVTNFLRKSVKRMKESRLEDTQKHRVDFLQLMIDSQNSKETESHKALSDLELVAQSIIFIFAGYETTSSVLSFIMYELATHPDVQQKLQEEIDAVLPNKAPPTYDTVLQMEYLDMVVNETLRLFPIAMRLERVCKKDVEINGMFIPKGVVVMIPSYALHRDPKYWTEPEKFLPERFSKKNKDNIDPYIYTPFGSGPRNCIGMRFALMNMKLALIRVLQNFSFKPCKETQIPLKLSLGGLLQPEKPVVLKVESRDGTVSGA
Sequence of Large T antigen (P03070 whole entry): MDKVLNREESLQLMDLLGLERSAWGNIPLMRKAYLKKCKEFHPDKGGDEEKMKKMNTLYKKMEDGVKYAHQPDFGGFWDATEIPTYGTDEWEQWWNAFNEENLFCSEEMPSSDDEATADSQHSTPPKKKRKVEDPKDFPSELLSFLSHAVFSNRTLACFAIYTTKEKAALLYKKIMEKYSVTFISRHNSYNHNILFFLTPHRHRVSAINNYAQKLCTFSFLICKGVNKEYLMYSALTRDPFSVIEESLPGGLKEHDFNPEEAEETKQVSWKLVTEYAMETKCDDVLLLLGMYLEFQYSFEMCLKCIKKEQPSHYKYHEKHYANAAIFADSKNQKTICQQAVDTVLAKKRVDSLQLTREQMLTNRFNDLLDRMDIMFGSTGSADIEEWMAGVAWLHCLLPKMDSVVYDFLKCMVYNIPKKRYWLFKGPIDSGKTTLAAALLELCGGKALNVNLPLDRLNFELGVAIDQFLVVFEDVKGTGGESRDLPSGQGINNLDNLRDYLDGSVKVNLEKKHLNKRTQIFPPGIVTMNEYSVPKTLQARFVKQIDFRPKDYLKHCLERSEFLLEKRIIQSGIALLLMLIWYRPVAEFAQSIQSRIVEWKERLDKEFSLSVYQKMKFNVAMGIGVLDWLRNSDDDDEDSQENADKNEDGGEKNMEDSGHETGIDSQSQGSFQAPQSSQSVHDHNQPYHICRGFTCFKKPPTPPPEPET

NC1=NC[C@H](c2ccccc2)N1CCCCC1CCCCC1
AC50 [1]: 43.1 µM (active) | IC50 [2]: > 20 µM (inactive) | AC50 [3]: 3.11 µM (active) | AC50 [4]: 4.23 µM (active)

O=C(C1=C[C@@H](c2coc3ccccc3c2=O)C[C@@H](OCc2ccc(CO)cc2)O1)N1CCN(Cc2ccc3c(c2)OCO3)CC1
IC50 [2]: > 20 µM (inactive)

O=C(Oc1ccccc1/C=C\C(=O)c1cc2ccccc2o1)c1cccc(F)c1
EC50 [5]: 8.35 µM (active) | EC50 [6]: 8.35 µM (active)

COC(=O)[C@@]12CCCCN1[C@H](c1ccc(-c3cc(C(C)=O)cs3)c(OC)c1)[C@H]1C(=O)N(C)C(=O)[C@H]12
IC50 [2]: > 20 µM (inactive)

CCOC(=O)Cc1csc(NC(=O)c2c(-c3c(Cl)cccc3Cl)noc2C)n1
AC50 (Cytochrome P450 1A2): 14.1 µM (inconclusive)

Cc1cc(NC(=O)c2nn(C)c(C)c2[N+](=O)[O-])no1
AC50 (Cytochrome P450 1A2): 25.1 µM (inconclusive)

CN(Cc1cc(Cl)cc(Cl)c1O)Cc1c(O)ccc2ccccc12
AC50 (Cytochrome P450 1A2): 0.631 µM (inconclusive) | AC50 (Cytochrome P450 2C9): 3.16 µM (inconclusive)

COc1ccc(-c2nc3cnc(Nc4ccccc4)nc3n(Cc3cccs3)c2=O)cc1
AC50 (Cytochrome P450 1A2): 25.1 µM (inconclusive) | AC50 (Cytochrome P450 2C9): 12.6 µM (inconclusive)

CC(C)CCNC(=O)C12CN(Cc3ccccc3)CC1C(c1cccc([N+](=O)[O-])c1)=NO2 (stereo not given)
AC50 (Cytochrome P450 1A2): 14.1 µM (inconclusive)

O=C(NC1CCCCC1)C12CC3CC(C1)CC(n1cncn1)(C3)C2
AC50 (Cytochrome P450 3A4): 3.55 µM (inconclusive) | AC50 (Cytochrome P450 1A2): 28.2 µM (inconclusive) | AC50 (Cytochrome P450 2C9): 5.01 µM (inconclusive) | AC50 (Cytochrome P450 2C19): 28.2 µM (inconclusive)

O=C(/C=C/c1ccc(-c2ccccc2[N+](=O)[O-])o1)c1ccc(F)cc1
EC50 [5]: 28.8 µM (active) | EC50 [6]: 35.7 µM (active)

COc1ccc(-c2nc3cnc(N4CCOCC4)nc3n(CCC#N)c2=O)cc1
AC50 (Cytochrome P450 1A2): 3.16 µM (inconclusive)

CCN(CC)c1ccc(NC(=O)CSc2nnc3nc(C)cc(C)n23)cc1
AC50 (Cytochrome P450 3A4): 39.8 µM (inconclusive) | AC50 (Cytochrome P450 2C19): 17.8 µM (inconclusive) | IC50 (Large T antigen): 19.8 µM (active)

CC(C)CN(Cc1c(O)ccc2c3c(c(=O)oc12)CCC3)CC(C)C
AC50 (Cytochrome P450 3A4): 17.8 µM (inconclusive) | AC50 (Cytochrome P450 1A2): 15.8 µM (inconclusive) | AC50 (Cytochrome P450 2C19): 20 µM (inconclusive)

Cn1c(-c2ccc(CN3CCCCC3)o2)nc2ccccc21
IC50 (Protein skinhead-1): > 100 µM (inactive) | AC50 (Cytochrome P450 3A4): 28.2 µM (inconclusive) | AC50 (Cytochrome P450 1A2): 12.6 µM (inconclusive) | AC50 (Cytochrome P450 2C9): 2 µM (inconclusive)

Oc1ccc(C[C@@H]2CNCCN2CCCCC2CCCCC2)cc1
IC50 [2]: > 20 µM (inactive)

CC(C)C[C@@H]1CN=C(N)N1C[C@@H]1CCCN1C[C@@H](C(C)C)N1C[C@@H](Cc2ccccc2)N(CCCC2CCCC2)C1=N
IC50 [2]: > 20 µM (inactive)

C[C@@H](CCC(=O)O)C(=O)O
AC50 (Cytochrome P450 1A2): 6.31 µM (inconclusive)

C[C@@H]1CN([C@@H](C)CO)C(=O)c2c(c3ccccc3n2C)-c2ccccc2CO[C@H]1CN(C)S(=O)(=O)c1ccc(C(F)(F)F)cc1
AC50 [7]: 3.02 µM (active)

O=C(CCCCCCC(=O)Nc1ccccc1O)N/N=C/c1ccc(OCc2ccccc2)cc1O
AC50 [8]: 1.16 µM (active)

C[C@H](CO)N1C[C@H](C)[C@H](CN(C)Cc2ccc(C(=O)Nc3ccccc3N)cc2)Oc2ccc(NS(=O)(=O)c3cccs3)cc2CC1=O
AC50 [8]: 4.59 µM (active)

C[C@H](CO)N1C[C@H](C)[C@@H](CN(C)Cc2ccc(C(=O)Nc3ccccc3N)cc2)Oc2c(NC(=O)Nc3ccc(F)cc3)cccc2C1=O
AC50 [8]: 4.17 µM (active)

C[C@H](CO)N1C[C@H](C)[C@H](CN(C)Cc2ccc(C(=O)Nc3ccccc3N)cc2)Oc2ccc(NC(=O)Nc3ccc(F)cc3)cc2CC1=O
AC50 [8]: 2.26 µM (active)

C[C@@H]1CN([C@H](C)CO)C(=O)c2cccc(NC(=O)Nc3ccc(C(F)(F)F)cc3)c2O[C@H]1CN(C)C(=O)Nc1ccc(C(F)(F)F)cc1
AC50 [8]: 6.75 µM (active)

C[C@H](CO)N1C[C@H](C)[C@H](CN(C)Cc2ccc(-c3ccccc3)cc2)Oc2ccc(NC(=O)Nc3ccc(C(F)(F)F)cc3)cc2C1=O
AC50 [8]: 5.37 µM (active)

C[C@@H]1CCCCO[C@@H](CN(C)Cc2ccccc2)[C@@H](C)CN([C@H](C)CO)C(=O)c2cc(NC(=O)Nc3ccc(C(F)(F)F)cc3)ccc2O1
AC50 (Paired box protein Pax-8): 10.1 µM (active) | AC50 [8]: 1.64 µM (active)

C[C@@H]1CN([C@H](C)CO)C(=O)Cc2cc(NS(=O)(=O)c3ccc(Cl)cc3)ccc2O[C@H]1CN(C)Cc1ccc(C(=O)Nc2ccccc2N)cc1
AC50 [8]: 4.53 µM (active)

C[C@H](CO)N1C[C@H](C)[C@@H](CN(C)Cc2ccc(-c3ccccc3)cc2)Oc2c(NC(=O)NC3CCCCC3)cccc2C1=O
AC50 [8]: 4.23 µM (active)

C[C@@H]1CCCCO[C@H](CN(C)Cc2ccc(Cl)c(Cl)c2)[C@@H](C)CN([C@H](C)CO)C(=O)c2cc(NS(=O)(=O)c3ccc(Cl)cc3)ccc2O1
AC50 [8]: 4.22 µM (active)

COc1ccc(CN(C)C[C@@H]2Oc3ccc(NS(=O)(=O)c4ccc(Cl)cc4)cc3CC(=O)N([C@H](C)CO)C[C@H]2C)cc1
AC50 [8]: 2.61 µM (active)

Cc1ccccc1S(=O)(=O)N1[C@H](CO)[C@@H](c2ccc(C#CC3CCCCC3)cc2)[C@@H]1C#N
AC50 [7]: 4.12 µM (active)

OC[C@@H]1Nc2ccc(C#Cc3cccc(F)c3)cc2[C@@H]2NCC[C@H]12
AC50 [7]: 2.83 µM (active)

N#C[C@H]1[C@@H](c2ccc(C#CC3CC3)cc2)[C@H](CO)N1S(=O)(=O)c1ccccc1
AC50 [7]: 4.18 µM (active)

CCCNC(=O)N1CC2(CCN(C(=O)CN(C)C)CC2)c2c(n(C)c3cc(OC)ccc23)[C@H]1CO
AC50 [7]: 4.6 µM (active)

COc1ccc(CN2C[C@@H](C)[C@H](OC)CN(C)C(=O)c3cc(NC(=O)c4nc5ccccc5s4)ccc3OC[C@H]2C)cc1
AC50 [7]: 4.08 µM (active)

Cc1ccc(/C=C/C(=O)c2ccccc2)cc1
EC50 [5]: 22.6 µM (active) | EC50 [6]: 20.1 µM (active)
